The text below walks through data of ChEMBL document CHEMBL1150383, “Synthesis and pharmacological evaluation of peptide-mimetic protease-activated receptor-1 antagonists containing novel heterocyclic scaffolds” (Bioorg Med Chem, 2008).

SMILES strings stand for the structures. The source made the active and inactive calls. No cut-off for these calls is given here.

Experiment [1] has as its target T1, Proteinase-activated receptor 1 (Homo sapiens) (UniProt P25116).
T1 sequence (whole entry): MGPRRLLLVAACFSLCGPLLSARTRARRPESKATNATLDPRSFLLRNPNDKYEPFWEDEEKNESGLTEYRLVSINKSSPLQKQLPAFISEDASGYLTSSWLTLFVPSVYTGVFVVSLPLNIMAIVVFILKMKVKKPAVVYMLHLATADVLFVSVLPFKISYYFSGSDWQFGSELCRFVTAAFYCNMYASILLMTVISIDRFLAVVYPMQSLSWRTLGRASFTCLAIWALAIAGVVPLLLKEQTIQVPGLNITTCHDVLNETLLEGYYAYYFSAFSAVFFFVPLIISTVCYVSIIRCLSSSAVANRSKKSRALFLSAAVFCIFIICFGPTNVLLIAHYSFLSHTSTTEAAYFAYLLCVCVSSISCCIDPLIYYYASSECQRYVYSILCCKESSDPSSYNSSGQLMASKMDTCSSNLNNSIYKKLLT
Briefly: Antagonist activity at PAR1 receptor assessed as inhibition of PAR1AP-induced platelet aggregation in human blood after 10 mins by chronolog dual channel aggregometry. Format: functional.

In experiment [2] the target is T2, Proteinase-activated receptor 1 (Rattus norvegicus) (UniProt P26824).
T2 sequence (whole entry): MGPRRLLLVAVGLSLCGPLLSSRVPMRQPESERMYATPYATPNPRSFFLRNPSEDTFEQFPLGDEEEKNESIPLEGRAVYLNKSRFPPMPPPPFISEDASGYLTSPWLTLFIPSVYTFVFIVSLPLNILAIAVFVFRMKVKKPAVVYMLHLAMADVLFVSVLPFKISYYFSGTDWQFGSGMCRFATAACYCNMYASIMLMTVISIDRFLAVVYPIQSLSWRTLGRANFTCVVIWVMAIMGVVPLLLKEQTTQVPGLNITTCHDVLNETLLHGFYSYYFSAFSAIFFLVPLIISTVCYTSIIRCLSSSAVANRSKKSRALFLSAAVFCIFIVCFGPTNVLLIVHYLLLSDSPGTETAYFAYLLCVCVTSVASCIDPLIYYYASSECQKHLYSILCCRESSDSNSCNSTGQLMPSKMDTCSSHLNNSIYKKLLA
In words: Antagonist activity at PAR1 receptor assessed as reduction of PAR1AP-induced aortic ring contraction in Wistar rat at 10 to 100 uM after 15 mins. The format is functional.

As to `Cc1c(CN2CCCC2)c2ccc(NC(=O)N[C@@H](Cc3ccc4ccccc4c3)C(=O)N[C@@H](CCCNC(=N)N)C(=O)NCc3ccccc3)cc2n1Cc1c(Cl)cccc1Cl`, the IC75 in experiment [1] worked out at 0.8 µM. In addition, the outcome in experiment [2] was Active.

For `COc1ccc(C[C@H](NC(=O)Nc2ccc3c(CN4CCCC4)c(C)n(Cc4c(Cl)cccc4Cl)c3c2)C(=O)N[C@@H](CCCNC(=N)N)C(=O)NCc2ccccc2)cc1`, the IC75 in experiment [1] is 0.02 µM. Also, the outcome in experiment [2] was Active.

As for `COc1ccc(C[C@H](NC(=O)Nc2ccc3c(CN4CCCC4)cn(Cc4c(Cl)cccc4Cl)c3c2)C(=O)N[C@@H](CCCNC(=N)N)C(=O)NCc2ccccc2)cc1`, the IC75 in experiment [1] was 0.1 µM. For the same compound, in experiment [2], the Activity was 94 dyn/mg.

With `Cc1c(CN2CCCC2)c2cc(NC(=O)N[C@@H](Cc3ccc4ccccc4c3)C(=O)N[C@@H](CCCNC(=N)N)C(=O)NCc3ccccc3)ccc2n1Cc1c(Cl)cccc1Cl`, the outcome in experiment [1] and in experiment [2] was inactive.

Consider `Cc1c(CN2CCCC2)c2ccc(NC(=O)N[C@@H](Cc3ccc(F)c(F)c3)C(=O)N[C@@H](CCCNC(=N)N)C(=O)NCc3ccccc3)cc2n1Cc1c(Cl)cccc1Cl`, for which the IC75 in experiment [1] worked out at 0.05 µM. Moreover, the Activity in experiment [2] turned out to be 31 dyn/mg.

Consider `Cc1c(CN2CCCC2)c2cc(NC(=O)N[C@@H](Cc3ccc(F)c(F)c3)C(=O)N[C@@H](CCCNC(=N)N)C(=O)NCc3ccccc3)ccc2n1Cc1c(Cl)cccc1Cl`, for which the outcome in experiment [1] and in experiment [2] was inactive.

Regarding `Cc1c(CN2CCCC2)c2cc(NC(=O)N[C@@H](Cc3cccc4ccccc34)C(=O)N[C@@H](CCCNC(=N)N)C(=O)NCc3ccccc3)ccc2n1Cc1c(Cl)cccc1Cl`, the result in experiment [1] and in experiment [2] was inactive.

In the case of `COc1ccc(C[C@H](NC(=O)Nc2ccc3c(c2)c(CN2CCCC2)c(C)n3Cc2c(Cl)cccc2Cl)C(=O)N[C@@H](CCCNC(=N)N)C(=O)NCc2ccccc2)cc1`, the outcome in experiment [1] and in experiment [2] was inactive.

The term IC75 denotes the point of the concentration-response curve where the effect stands at 75%.
